These results are taken from patent US12029738B2, “Antiproliferative compounds and methods of use thereof” (Celgene Corporation, priority 2017, dated 2024).

Each structure is given as a SMILES string. Read-outs that look alike come from different tables or passages of the source.

One test concerns JJN-3. As to the kind of experiment: Flow cytometry proliferation/apoptosis assay (120 h). The test is classed as cell-based, human. As to the method:
Methods. […] Using 5 mM stocks, compounds were pre-spotted into the appropriate wells of 96-well plates using a Hewlett-Packard D300 Digital Dispenser. Cells were added to 96-well plates using a Multidrop Combi Reagent Dispenser. After 5 days of treatment, flow cytometric analysis was used to determine the number of cells that were alive, dead, or apoptotic. After 5 days of treatment, cells were incubated with annexin V to stain exposed phosphatidylserine, an apoptotic cell-surface marker, and the vital dye 7-AAD, which is excluded from cells with intact cell membranes, and analyzed by flow cytometry (Attune®, Thermo Fisher). Analysis was then performed to determine the number of live cells (annexin V and 7-AAD double negative staining cells) and the percentage of apoptotic cells (annexin V positive cells) for each condition, relative to the DMSO control treated, was calculated. All described values were normalized to DMSO-only treated cells. […] The live cell count for every concentration was normalized to the DMSO control (considered as 100%) in Microsoft Excel to generate the proliferation curves. […] Similarly, for apoptosis analysis, the percentage of drug-induced apoptosis was calculated for all doses by combining both “early” (annexin V positive and 7-AAD negative) and “late” apoptosis (annexin V and 7-AAD positive) values and subtracting background values (cell treated with vehicle control DMSO). […] The area under the dose-response curve (AUC) was calculated since it integrates potency and efficacy of the drugs to represent apoptosis into a single parameter.
Each data point represents 2 independent experiments with at least two samples in each experiment.

A further test relates to LP-1. The test is described as above. The note with it: for IC50: Homo sapiens, read-out: Antiproliferative Activity (Flow Cytometry) IC50; for induced apoptosis AUC (area under the dose response curve): scale 0-10000. The test is classed as cell-based, human. As to the method: (§1) Methods. […] Twenty MM cell lines (Table 7 and 8) (including the plasma cell leukemia (PCL) cell lines L363, JJN-3, ARH-77, and SKMM-2) were treated in duplicate with escalating concentrations of Compound 2 or pomalidomide, ranging from 0.015 to 100 nM. Using 5 mM stocks, compounds were pre-spotted into the appropriate wells of 96-well plates using a Hewlett-Packard D300 Digital Dispenser. Cells were added to 96-well plates using a Multidrop Combi Reagent Dispenser. After 5 days of treatment, flow cytometric analysis was used to determine the number of cells that were alive, dead, or apoptotic. After 5 days of treatment, cells were incubated with annexin V to stain exposed phosphatidylserine, an apoptotic cell-surface marker, and the vital dye 7-AAD, which is excluded from cells with intact cell membranes, and analyzed by flow cytometry (Attune®, Thermo Fisher). Analysis was then performed to determine the number of live cells (annexin V and 7-AAD double negative staining cells) and the percentage of apoptotic cells (annexin V positive cells) for each condition, relative to the DMSO control treated, was calculated. All described values were normalized to DMSO-only treated cells. All proliferation and apoptosis induction curves were processed and graphed as percent of control using XLFit (IDBS, Alameda, CA) and GraphPad Prism 7.03 (GraphPad Software, La Jolla, CA). The live cell count for every concentration was normalized to the DMSO control (considered as 100%) in Microsoft Excel to generate the proliferation curves. […] Similarly, for apoptosis analysis, the percentage of drug-induced apoptosis was calculated for all doses by combining both “early” (annexin V positive and 7-AAD negative) and “late” apoptosis (annexin V and 7-AAD positive) values and subtracting background values (cell treated with vehicle control DMSO). The AUC values for apoptosis curves were calculated by performing area under curve analysis on GraphPad Prism 7.03. The area under the dose-response curve (AUC) was calculated since it integrates potency and efficacy of the drugs to represent apoptosis into a single parameter. The IC50 values for Compound 2 and pomalidomide in the flow cytometry assays are presented Table 9.
(§2) The apoptosis induction effect of Compound 2 was assessed using flow cytometry after 120 h of treatment and compared with pomalidomide treatment. […] Each data point represents 2 independent experiments with at least two samples in each experiment. (Table 10).

A further test has as its system KMS-12-PE. Described as above. The test is classed as cell-based, human. As to conditions: for IC50: Homo sapiens, read-out: Antiproliferative Activity (Flow Cytometry) IC50; for induced apoptosis AUC (area under the dose response curve): scale 0-10000. As to the method:
as §1, §2

The test system of another test is MM1-S. The test is described as above. The note with it: for IC50: Homo sapiens, MM1-S, read-out: Antiproliferative Activity (Flow Cytometry) IC50; for induced apoptosis AUC (area under the dose response curve): MM1.S, 10000 = complete induction at all doses, 0 = none. Type of test: cell-based, human. The procedure: as §1, §2
A further test relates to ANBL-6. The description is as above. The test is classed as cell-based, human. The note with it: for IC50: Homo sapiens, read-out: Antiproliferative Activity (Flow Cytometry) IC50; for induced apoptosis AUC (area under the dose response curve): scale 0-10000. As to the method: as §1, §2
In the next test the test system is NCI-H929. The description is as above. The test is classed as cell-based, human. As to conditions: for IC50: Homo sapiens, read-out: Antiproliferative Activity (Flow Cytometry) IC50; for induced apoptosis AUC (area under the dose response curve): scale 0-10000. As to the method:
as §1, §2

Another test deals with DF15. The test is described as above. Type of test: cell-based, human. The note with it: for IC50: Homo sapiens, read-out: Antiproliferative Activity (Flow Cytometry) IC50; for induced apoptosis AUC (area under the dose response curve): scale 0-10000. As to the method:
as §1, §2

Another test deals with OPM2. The description is as above. As to conditions: for IC50: Homo sapiens, OPM-2, read-out: Antiproliferative Activity (Flow Cytometry) IC50; for induced apoptosis AUC (area under the dose response curve): scale 0-10000. The test is classed as cell-based, human. As to the method:
as §1, §2

A further test concerns RPMI-8226. In words: PBMC and MM cell treatment assay (single culture vs co-culture). The test is classed as cell-based. As to conditions: Homo sapiens, RPMI-8226, RPMI-8226, read-out: Immune-mediated Cell Killing IC50.
The test system of the next test is K562 cells. In words: Coculture of compound-treated IL-2-activated PBMCs with K562 cells. The test is classed as cell-based, human. As to conditions: for IC50: Homo sapiens, K562, IL-2-activated PBMCs treated 72 h, 4 h coculture, read-out: IC50 of compound-treated PBMCs for direct K562 cell killing. The procedure:
Coculture Experiments with Peripheral Blood Mononuclear Cells and K562 Cells. Methods: Human Peripheral Blood Mononuclear Cell (PBMC) Preparation: PBMCs isolated from healthy donors were cultured in RPMI 1640 medium with 10% FBS at a density of 1×10^6 cells/mL.
Cell Culture: K562 cells were kept in log phase, and cell density and viability were monitored by trypan blue exclusion using the Vi-CELL® XR cell viability analyzer (Beckman Coulter, Brea, CA).
Assay Procedures: Freshly isolated human PBMCs were cultured with recombinant IL-2 at concentration of 20 units/mL for 72 h. Peripheral blood mononuclear cells were then spun down and re-suspended in fresh RPMI complete medium to 2×10^6 cells/mL. Cells were then treated with DMSO or compounds at the indicated concentrations and incubated for an additional 72 h. The PBMCs were then washed twice in fresh RPMI complete medium prior to coculture. K562 cells were re-suspended to a cell density of 1×10^6/mL and stained with 1 μM CellTrace CFSE according to manufacturer's instructions. The labeled K562 cells were then seeded into a 96-well round bottom plate at 1×10^5 cells/well. Peripheral blood mononuclear cells were then transferred into the same 96-well plate at a 1:15 ratio, in triplicate and incubated at 37° C. for 4 h. Specific target cell lysis by PBMC cells was measured using Annexin V-fluorescein isothiocyanate (FITC) and propidium iodide (PI) according to manufacturer's instructions and samples were run on the FACS Array scan. Non-labeled K562 cells, CellTrace CFSE-labeled K562 cells, and Annexin V-FITC- and PI labeled untreated K562 cells were included in each assay as controls.

[1] abbreviates: JJN-3 (DSMZ); 120 h; scale 0-10000.

As for `N#Cc1ccc(N2CCN(Cc3ccc(COc4cccc5c4CN([C@H]4CCC(=O)NC4=O)C5=O)cc3)CC2)c(F)c1` [Compound 2, (S)-4-(4-(4-(((2-(2,6-dioxopiperidin-3-yl)-1-oxoisoindolin-4-yl)oxy)methyl)benzyl)piperazin-1-yl)-3-fluorobenzonitrile], the IC50 was 0.1 nM in the test on JJN-3 (Homo sapiens, JJN-3, 120 h, read-out: Antiproliferative Activity (Flow Cytometry) IC50); 0.14 nM in the test on LP-1; 0.09 nM in the test with KMS-12-PE; 0.04 nM in the test with MM1-S; 0.06 nM in the test on ANBL-6; 0.05 nM in the test on NCI-H929. Moreover, the IC50 in the test on DF15 worked out at 0.05 nM; in the test with OPM2, 0.05 nM; in the test with RPMI-8226 (Co-culture with PBMCs), 0.0839 nM; with RPMI-8226 (Single culture), 13.4 nM; in the test with K562 cells, 5900 nM. Besides, the “induced apoptosis AUC (area under the dose response curve)” value (shortened to “induced apoptosis AUC”) in the test with JJN-3 (setting [1]) is on record as 1125; in the test with LP-1, 630.7; in the test with KMS-12-PE it was 2017; with MM1-S, 5701; in the test with ANBL-6, 4751; in the test with NCI-H929, 6089. Also, the “induced apoptosis AUC” value in the test on DF15 came out at 6002; with OPM2, 5620. Also, in the test on K562 cells (50% direct K562 cell killing), the “potency relative to lenalidomide-treated PBMCs” value was roughly 2600 fold. In addition, in the test on K562 cells (50% direct K562 cell killing), the “potency relative to pomalidomide-treated PBMCs” value is on record as roughly 600 fold.

With `Nc1cccc2c1C(=O)N(C1CCC(=O)NC1=O)C2=O` (stereo not shown) [Pomalidomide, pomalidomide], the IC50 is 366 nM in the test with JJN-3 (Homo sapiens; JJN-3; 120 h; read-out: Antiproliferative Activity (Flow Cytometry) IC50); 176 nM in the test with LP-1; 83.8 nM in the test with KMS-12-PE; 33.7 nM in the test with MM1-S; 60.6 nM in the test with ANBL-6; 63.1 nM in the test with NCI-H929. Moreover, the IC50 is 41 nM in the test with DF15; 69.7 nM with OPM2; 67.6 nM with RPMI-8226 (Co-culture with PBMCs); greater than 10000 nM in the test on RPMI-8226 (Single culture); 4 nM in the test with K562 cells. Also, the “induced apoptosis AUC” value with JJN-3 (setting [1]) was determined as 199.1; in the test with LP-1, 174; in the test on KMS-12-PE, 1069; in the test with MM1-S it was 3525; in the test with ANBL-6 it was 2580; in the test with NCI-H929, 2115. For the same compound, the “induced apoptosis AUC” value was determined as 3707 in the test on DF15 and 3298 in the test with OPM2.
